{
  "source": "paper PMC6691587",
  "about": "“New CXCR1/CXCR2 inhibitors represent an effective treatment for kidney or head and neck cancers sensitive or refractory to reference treatments” (Theranostics, 2019)",
  "key": {"[1]": {"system": "primary normal kidney cells (15S)", "assay": "Cell viability, primary normal kidney cells", "format": "cell-based", "procedure": "(§1) Fifty microliters of sodium 3′-[1-phenylaminocarbonyl)-3,4-tetrazolium]-bis(4-methoxy-6-nitro) benzene sulfonic acid hydrate (XTT) reagent was added to each well. The assay is based on the cleavage of the yellow tetrazolium salt XTT to form an orange formazan dye by metabolically active cells. This bio-reduction occurs in viable cells only and is related to NAD(P)H production through glycolysis. Therefore, the amount of formazan dye measured at 490 nm directly correlated with the number of metabolically active cells reflecting cell proliferation and viability. Each assay was performed in quadruplicate.\nFor the experiments with C29, we confirmed all the results by evaluating the cell viability. Cell viability and cell death was assessed using the ADAM-MC apparatus (NanoEnTek, Guro-gu, Seoul, Korea) based on fluorescent propidium iodide staining according to the manufacturer's instructions.\n(§2) To determine the selectivity of the activity of the substances tested, the selectivity index (SI) was calculated according to the equation previously described where SI = IC50 of a compound in a normal cell line/IC50 of the same compound in cancer cell line. The IC50 is the concentration required to kill 50% of the cell population."}, "[2]": {"system": "CAL33", "assay": "XTT cell viability assay, CAL33 HNSCC cells", "format": "cell-based, human", "conditions": "for IC50: Homo sapiens, CAL-33", "procedure": "as §1"}, "[3]": {"system": "uveal melanoma cells (Mel202)", "assay": "Cell viability, uveal melanoma cells", "format": "cell-based", "procedure": "as §1, §2"}, "[4]": {"system": "A498", "assay": "XTT cell viability assay, A498 RCC cells", "format": "cell-based, human", "conditions": "for IC50: Homo sapiens, A498", "procedure": "as §1"}, "[5]": {"system": "sunitinib-resistant 786-O cells (786R)", "assay": "XTT cell viability assay, sunitinib-resistant 786-O cells", "format": "cell-based, human", "conditions": "1 to 10 µM 48 h, 2.5 µM 24 to 96 h", "procedure": "as §1"}},
  "note": "Where two headings read alike, the source gives them in different places.",
  "data": [
    {"smiles": "O=C(Nc1cccc(Cl)c1)Nc1nc2ccc([N+](=O)[O-])cc2s1", "note": "[C29]", "values": [
      {"measurement": "IC50", "setting": "[1]; CXCR1-/CXCR2-, normal primary kidney cells", "value": 12.5, "unit": "µM"},
      {"measurement": "Selectivity index 15S", "setting": "[1]; SI = IC50 in normal cell line (15S)/IC50 in this cell line, reference", "value": 1},
      {"measurement": "effect on primary normal kidney cells (15S)", "setting": "[1]; even at a higher concentration (5 µmol/L)", "value": "no effect"},
      {"measurement": "IC50", "setting": "[2]; CXCR1+/CXCR2+, read-out: IC50 CAL33", "value": 4, "unit": "µM"},
      {"measurement": "IC50", "setting": "[2]; XTT assay, 48 h, SD 10%, mean of three experiments, read-out: IC50 33 (HNSCC)", "value": 4, "unit": "µM"},
      {"measurement": "Selectivity index CAL33", "setting": "[2]; SI = IC50 in normal cells (15S)/IC50 in CAL33", "value": 3.13},
      {"measurement": "proliferation/survival of uveal melanoma cells (Mel202)", "setting": "[3]; 2.5 µmol/L", "value": "did not affect"},
      {"measurement": "IC50", "setting": "[3]; Mel202, CXCR1-/CXCR2-", "value": 10, "unit": "µM"},
      {"measurement": "Selectivity index Mel202", "setting": "[3]; SI = IC50 in normal cells (15S)/IC50 in Mel202", "value": 1.25},
      {"measurement": "IC50", "setting": "[4]; CXCR1+/CXCR2+, read-out: IC50 A498", "value": 2.5, "unit": "µM"},
      {"measurement": "IC50", "setting": "[4]; XTT assay, 48 h, SD 10%, mean of three experiments, read-out: IC50 498 (Kidney RCC)", "value": 2.5, "unit": "µM"},
      {"measurement": "Selectivity index A498", "setting": "[4]; SI = IC50 in normal cells (15S)/IC50 in A498", "value": 5},
      {"measurement": "effect on cell viability of sunitinib-resistant 786-O cells", "setting": "[5]", "value": "conserved"}
    ]}
  ]
}
